According to patent publication US20250114460A1, “NOVEL PLK1 DEGRADATION INDUCING COMPOUND” (UPPTHERA, INC., priority 2021, published 2025):

Key:
Format in all cases: cell-based
PLK1 = target: T1, PLK1 (Homo sapiens, UniProt P53350); assay: Luciferase assay for PLK1 in HeLa LgBit (Plk1-HiBit KI) cell line; settings: 300 nM compound, luminescence after 9 hours
T1 construct: endogenous in cells; host or cells: HeLa LgBit (Plk1-HiBit KI): HeLa stably expressing LgBit, with a CRISPR/Cas9 knock-in of HiBit at the endogenous PLK1 locus
Summary of the method: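 Luminescence, followed in real time after adding compound at 300 nM and Endurazine substrate, is reported relative to DMSO-treated wells. Cells are a HeLa LgBit line with a Plk1-HiBit knock-in, synchronized by 2 mM thymidine for 24 h, released, and cultured 18 h before treatment.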

NCI-H526 cell line = assay: Cell viability assay for H526 cell (EZ-Cytox); settings: Homo sapiens, NCI-H526, 120 h; H526 cells, 5 days, 3000 nM to 0.46 nM
Summary of the method: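 Read-out was EZ-Cytox colorimetric absorbance at 450 nm, taken after brief plate shaking, with IC50 derived. Before reading, H526 cells had been cultured with test compound for 5 days.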

MRC-5 cell line = assay: Cell viability assay for MRC-5 cell line (EZ-Cytox); settings: Homo sapiens, MRC5, 120 h; MRC-5 normal cell line, 5 days, 10000 nM to 1.52 nM; N.D. = no cytotoxicity until 10 μM; read-out: Activity: IC50 value of Exemplary Compound to MRC-5 cell line
Procedure: 4. Cell Viability Assay for MRC-5 Cell Line
(1) Culture of MRC-5 Cell Line
Passage of cultured cells was maintained within P15.
(2) Treatment of Compounds of the Present Invention
Then, it was cultured in 37° C.
(3) Cytotoxicity Experiment
CO2 incubator for 4 hours.

T1 sequence (P53350 whole entry): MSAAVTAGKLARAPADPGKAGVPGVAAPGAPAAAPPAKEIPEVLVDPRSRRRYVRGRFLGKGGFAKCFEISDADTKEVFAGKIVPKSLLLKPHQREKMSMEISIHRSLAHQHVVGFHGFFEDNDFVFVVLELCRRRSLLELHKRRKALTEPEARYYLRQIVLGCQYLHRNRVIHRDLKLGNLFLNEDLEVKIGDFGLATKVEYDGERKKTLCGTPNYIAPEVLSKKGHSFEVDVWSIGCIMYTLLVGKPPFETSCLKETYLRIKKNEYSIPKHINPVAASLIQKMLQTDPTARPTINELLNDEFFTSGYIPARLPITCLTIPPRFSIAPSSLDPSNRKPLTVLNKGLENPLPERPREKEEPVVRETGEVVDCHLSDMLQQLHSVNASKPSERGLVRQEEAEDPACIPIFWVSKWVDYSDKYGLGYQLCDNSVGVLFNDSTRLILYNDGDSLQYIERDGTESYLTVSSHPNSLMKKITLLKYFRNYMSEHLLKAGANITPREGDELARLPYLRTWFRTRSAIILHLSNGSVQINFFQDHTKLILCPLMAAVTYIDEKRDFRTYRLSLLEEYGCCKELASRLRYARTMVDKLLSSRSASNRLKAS

| Compound | Activity: ratio of the luminescense value of each Exemplary Compound treatment group to DMSO treatment group (PLK1) | IC50 (NCI-H526 cell line) [µM] | IC50 (MRC-5 cell line) [µM] |
| --- | --- | --- | --- |
| COc1cc(C(=O)NC2CCN(C(=O)CCCOc3cccc4c3C(=O)N(C3CCC(=O)NC3=O)C4=O)CC2)ccc1Nc1ncc2c(n1)N(C1CCCC1)CC(F)(F)C(=O)N2C (stereo not drawn) [Compound 31, 4-((9-cyclopentyl-7,7-difluoro-5-methyl-6-oxo-6,7,8,9-tetrahydro-5H-pyrimido[4,5-b][1,4]diazepin-2-yl)amino)-N-(1-(4-((2-(2,6-dioxopiperidin-3-yl)-1,3-dioxoisoindolin-4-yl)oxy)butanoyl)piperidin-4-yl)-3-methoxybenzamide] | +++ (+++: <0.3) | < 0.1 | > 10 |
| COc1cc(C(=O)NC2CCN(C(=O)CCCOc3cccc4c3CN(C3CCC(=O)NC3=O)C4=O)CC2)ccc1Nc1ncc2c(n1)N(C1CCCC1)CC(F)(F)C(=O)N2C (stereo not drawn) [Compound 32, 4-((9-cyclopentyl-7,7-difluoro-5-methyl-6-oxo-6,7,8,9-tetrahydro-5H-pyrimido[4,5-b][1,4]diazepin-2-yl)amino)-N-(1-(4-((2-(2,6-dioxopiperidin-3-yl)-1-oxoisoindolin-4-yl)oxy)butanoyl)piperidin-4-yl)-3-methoxybenzamide] | ++ (++<0.6) | < 0.05 | > 10 |
| COc1cc(C(=O)NC2CCN(C(=O)COc3cccc4c3C(=O)N(C3CCC(=O)NC3=O)C4=O)CC2)ccc1Nc1ncc2c(n1)N(C1CCCC1)CC(F)(F)C(=O)N2C (stereo not drawn) [Compound 38, 4-((9-cyclopentyl-7,7-difluoro-5-methyl-6-oxo-6,7,8,9-tetrahydro-5H-pyrimido[4,5-b][1,4]diazepin-2-yl)amino)-N-(1-(2-((2-(2,6-dioxopiperidin-3-yl)-1,3-dioxoisoindolin-4-yl)oxy)acetyl)piperidin-4-yl)-3-methoxybenzamide] | ++ (++<0.6) | < 0.2 | > 10 |
| COc1cc(C(=O)N[C@@H]2CCN(C(=O)COc3cccc4c3C(=O)N(C3CCC(=O)NC3=O)C4=O)C2)ccc1Nc1ncc2c(n1)N(C1CCCC1)CC(F)(F)C(=O)N2C (stereo partly drawn) [Compound 39, 4-((9-cyclopentyl-7,7-difluoro-5-methyl-6-oxo-6,7,8,9-tetrahydro-5H-pyrimido[4,5-b][1,4]diazepin-2-yl)amino)-N-((3R)-1-(2-((2-(2,6-dioxopiperidin-3-yl)-1,3-dioxoisoindolin-4-yl)oxy)acetyl)pyrrolidin-3-yl)-3-methoxybenzamide] | ++ (++<0.6) | < 0.1 | > 10 |
| COc1cc(C(=O)N[C@H]2CCN(C(=O)COc3cccc4c3C(=O)N(C3CCC(=O)NC3=O)C4=O)C2)ccc1Nc1ncc2c(n1)N(C1CCCC1)CC(F)(F)C(=O)N2C (stereo partly drawn) [Compound 40, 4-((9-cyclopentyl-7,7-difluoro-5-methyl-6-oxo-6,7,8,9-tetrahydro-5H-pyrimido[4,5-b][1,4]diazepin-2-yl)amino)-N-((3S)-1-(2-((2-(2,6-dioxopiperidin-3-yl)-1,3-dioxoisoindolin-4-yl)oxy)acetyl)pyrrolidin-3-yl)-3-methoxybenzamide] | ++ (++<0.6) | < 0.2 | > 10 |
| COc1cc(C(=O)NC2CCN(C(=O)CSc3cccc4c3C(=O)N(C3CCC(=O)NC3=O)C4=O)CC2)c(F)cc1Nc1ncc2c(n1)N(C1CCCC1)CC(F)(F)C(=O)N2C (stereo not drawn) [Compound 41, 4-((9-cyclopentyl-7,7-difluoro-5-methyl-6-oxo-6,7,8,9-tetrahydro-5H-pyrimido[4,5-b][1,4]diazepin-2-yl)amino)-N-(1-(2-((2-(2,6-dioxopiperidin-3-yl)-1,3-dioxoisoindolin-4-yl)thio)acetyl)piperidin-4-yl)-2-fluoro-5-methoxybenzamide] | ++ (++<0.6) | < 0.2 | > 10 |
| COc1cc(C(=O)NC2CCN(C(=O)CC3CCN(c4cccc5c4C(=O)N(C4CCC(=O)NC4=O)C5=O)C3)CC2)c(F)cc1Nc1ncc2c(n1)N(C1CCCC1)CC(F)(F)C(=O)N2C (stereo not drawn) [Compound 44, 4-((9-cyclopentyl-7,7-difluoro-5-methyl-6-oxo-6,7,8,9-tetrahydro-5H-pyrimido[4,5-b][1,4]diazepin-2-yl)amino)-N-(1-(2-(1-(2-(2,6-dioxopiperidin-3-yl)-1,3-dioxoisoindolin-4-yl)pyrrolidin-3-yl)acetyl)piperidin-4-yl)-2-fluoro-5-methoxybenzamide] | ++ (++<0.6) | < 0.1 | > 10 |
| COc1cc(C(=O)NC2CCN(C(=O)CC3CCN(c4ccc5c(c4)C(=O)N(C4CCC(=O)NC4=O)C5=O)C3)CC2)c(F)cc1Nc1ncc2c(n1)N(C1CCCC1)CC(F)(F)C(=O)N2C (stereo not drawn) [Compound 45, 4-((9-cyclopentyl-7,7-difluoro-5-methyl-6-oxo-6,7,8,9-tetrahydro-5H-pyrimido[4,5-b][1,4]diazepin-2-yl)amino)-N-(1-(2-(1-(2-(2,6-dioxopiperidin-3-yl)-1,3-dioxoisoindolin-5-yl)pyrrolidin-3-yl)acetyl)piperidin-4-yl)-2-fluoro-5-methoxybenzamide] | ++ (++<0.6) | < 0.1 | > 10 |
| COc1cc(C(=O)NC2CCN(C[C@H]3CCN(c4ccc5c(c4)C(=O)N(C4CCC(=O)NC4=O)C5=O)C3)CC2)ccc1Nc1ncc2c(n1)N(C1CCCC1)CC(F)(F)C(=O)N2C (stereo partly drawn) [Compound 49, 4-((9-cyclopentyl-7,7-difluoro-5-methyl-6-oxo-6,7,8,9-tetrahydro-5H-pyrimido[4,5-b][1,4]diazepin-2-yl)amino)-N-(1-(((3R)-1-(2-(2,6-dioxopiperidin-3-yl)-1,3-dioxoisoindolin-5-yl)pyrrolidin-3-yl)methyl)piperidin-4-yl)-3-methoxybenzamide] | ++ (++<0.6) | < 0.05 | > 10 |
| COc1cc(C(=O)NCC2CCN(CCC3CCN(c4cccc5c4C(=O)N(C4CCC(=O)NC4=O)C5=O)C3)CC2)ccc1Nc1ncc2c(n1)N(C1CCCC1)CC(F)(F)C(=O)N2C (stereo not drawn) [Compound 50, 4-((9-cyclopentyl-7,7-difluoro-5-methyl-6-oxo-6,7,8,9-tetrahydro-5H-pyrimido[4,5-b][1,4]diazepin-2-yl)amino)-N-((1-(2-(1-(2-(2,6-dioxopiperidin-3-yl)-1,3-dioxoisoindolin-4-yl)pyrrolidin-3-yl)ethyl)piperidin-4-yl)methyl)-3-methoxybenzamide] | ++ (++<0.6) | < 0.03 | 11.3 |
| COc1cc(C(=O)NN2CCN(C3CCN(c4cccc5c4C(=O)N(C4CCC(=O)NC4=O)C5=O)C3)CC2)ccc1Nc1ncc2c(n1)N(C1CCCC1)CC(F)(F)C(=O)N2C (stereo not drawn) [Compound 51, 4-((9-cyclopentyl-7,7-difluoro-5-methyl-6-oxo-6,7,8,9-tetrahydro-5H-pyrimido[4,5-b][1,4]diazepin-2-yl)amino)-N-(4-(1-(2-(2,6-dioxopiperidin-3-yl)-1,3-dioxoisoindolin-4-yl)pyrrolidin-3-yl)piperazin-1-yl)-3-methoxybenzamide] | ++ (++<0.6) | < 0.03 | > 10 |
| COc1cc(C(=O)NC2CCN(CCC3CCCN(c4cccc5c4C(=O)N(C4CCC(=O)NC4=O)C5=O)C3)CC2)ccc1Nc1ncc2c(n1)N(C1CCCC1)CC(F)(F)C(=O)N2C (stereo not drawn) [Compound 55, 4-((9-cyclopentyl-7,7-difluoro-5-methyl-6-oxo-6,7,8,9-tetrahydro-5H-pyrimido[4,5-b][1,4]diazepin-2-yl)amino)-N-(1-(2-(1-(2-(2,6-dioxopiperidin-3-yl)-1,3-dioxoisoindolin-4-yl)piperidin-3-yl)ethyl)piperidin-4-yl)-3-methoxybenzamide] | ++ (++<0.6) | < 0.1 | 3.81 |
| COc1cc(C(=O)NN2CCN(C3CCN(c4ccc5c(c4)C(=O)N(C4CCC(=O)NC4=O)C5=O)C3)CC2)ccc1Nc1ncc2c(n1)N(C1CCCC1)CC(F)(F)C(=O)N2C (stereo not drawn) [Compound 56, 4-((9-cyclopentyl-7,7-difluoro-5-methyl-6-oxo-6,7,8,9-tetrahydro-5H-pyrimido[4,5-b][1,4]diazepin-2-yl)amino)-N-(4-(1-(2-(2,6-dioxopiperidin-3-yl)-1,3-dioxoisoindolin-5-yl)pyrrolidin-3-yl)piperazin-1-yl)-3-methoxybenzamide] | ++ (++<0.6) | < 0.03 | > 10 |
| COc1cc(C(=O)NN2CCN(C(=O)CCC3CCN(c4cccc5c4CN(C4CCC(=O)NC4=O)C5=O)CC3)CC2)ccc1Nc1ncc2c(n1)N(C(C)C)CC(F)(F)C(=O)N2C (stereo not drawn) [Compound 58, 4-((7,7-difluoro-9-isopropyl-5-methyl-6-oxo-6,7,8,9-tetrahydro-5H-pyrimido[4,5-b][1,4]diazepin-2-yl)amino)-N-(4-(3-(1-(2-(2,6-dioxopiperidin-3-yl)-1-oxoisoindolin-4-yl)piperidin-4-yl)propanoyl)piperazin-1-yl)-3-methoxybenzamide] | ++ (++<0.6) | < 0.05 | > 10 |
